One experiment concerns skin HaCat keratinocytes. Description: Cell growth inhibition assay, HaCat. It is filed as cell-based, human. To be noted: 24 h incubation; mean ± SD. Here is the method:
Cell growth inhibition analyses were performed on human melanoma Colo38 cells and skin HaCat keratinocytes. Human melanoma Colo38 cells were kindly given by Dr. Patrizio Giacomini (Laboratory of Immunology, Regina Elena Institute, Rome, Italy). HaCat cells were obtained from Istituto Zooprofilattico Sperimentale della Lombardia e dell’Emilia-Romagna, Brescia, Italy. Cells were seeded at 40,000 cells/mL and 25,000 cells/mL, respectively. Colo38 cells were maintained in RPMI 1640, supplemented with 10% foetal bovine serum (FBS), penicillin (100 Units/mL), and streptomycin (100 µg/mL). HaCat cells were maintained in DMEM, supplemented with 10% fatal bovine serum (FBS), penicillin (100 Units/mL), streptomycin (100 µg/mL) and glutamine (2 mM); the incubation was performed at 37 °C in a 5% CO2 atmosphere. Compounds were dissolved in DMSO to obtain 50 mM stock solutions and diluted before cell treatment in MeOH. The tested compounds were added at serial dilutions to the cell cultures (from 0.1 to 100 µM) and incubated for 24 h further. Cells were then harvested, suspended in physiological solution, and counted with a Z2 Coulter Counter (Coulter Electronics, Hialeah, FL, USA). The number of cells/mL and the IC50 values were determined when untreated cells were in the log phase of cell growth. Samples of vehicles and untreated cells were included in each plate. Cisplatin was used as positive control for the HaCat cells, while N1-(4-arylidene)-1H-(2-OH-4-N(Et)2-phenyl)-[d]imidazole-2-carbohydrazide was used as positive control for the Colo38 cell line.

The next experiment in a line: ORAC assay. The note with it: Trolox equivalents; mean ± SD. It is filed as biochemical. How it is done:
The ORAC assay was performed based on the previously modified Hong procedure. The sodium salt of fluorescein (85 nM) was used as a target for free radical attack with 2,2′-azobis(2-amidinopropane) dichloride (AAPH) as a peroxyl radical generator in the final assay mixture (total volume of 0.2 mL). The test involves a calibration curve of Trolox (standard control) with different concentrations (40 to 240 μM). The compounds tested were first dissolved in DMSO:MeOH and then diluted in phosphate buffer solution pH 7.4. Fluorescence measurements were performed at 37 °C and recorded at 5-min intervals up to 30 min after the addition of AAPH. ORAC values were calculated as the difference in areas under the fluorescein quenching curves between the blank and the sample and were expressed as µmol Trolox equivalents (TE) per gram of dried sample.

Experiment [1] in a line: DPPH radical scavenging activity. It is filed as biochemical. The note with it: values in brackets; mean ± SD. Here is the method: For all the compounds, 0.750 mL of a DMSO-MeOH solution mixed with 1.5 mL of DPPH solution (0.004%) in MeOH was analysed. The samples were kept in the dark at room temperature for 30 min and then analysed with a spectrophotometer by reading the absorbance at 517 nm (lambda max of the absorption spectrum of the DPPH radical). Equation (5) was used to obtain the percentage inhibition (%) of the radical: DPPH radical-scavenging capacity (%) = [1 − (A1 − A2)/A0] × 100%(5) where A2 is the blank (MeOH), and A1 and A0 are, respectively, the recorded absorbances of the sample and control (0.750 MeOH and 1.5 mL DPPH solution), directly proportional to the concentration of residual DPPH. An initial screening was performed by testing all compounds at a concentration of 1 mg/mL (Trolox® was used as the standard); subsequently, compounds showing >90% radical inhibition were further tested to calculate their IC50 value (expressed in µg/mL). Ferulic acid was used as positive control. A linear regression was performed to calculate the sample concentration able to eliminate 50% of DPPH free radicals.

A short description of experiment [2]: Ferric reducing antioxidant power (FRAP) test. To be noted: Trolox equivalents; mean ± SD. It is filed as biochemical. Here is the method:
The FRAP test, based on a colorimetric reaction, can assess the ability of a sample to reduce ferric ions to ferrous ions when complexed with 2,4,6-trispiridyl-s-triazine (TPTZ). The FRAP solution consisted of 0.1 M acetate buffer (pH 3.6), 10 mmol/L of TPTZ in 40 mM HCl and a 20 mM solution of FeCl3, in a 10:1:1 ratio. A 1.9 mL volume of the FRAP solution was incubated with 0.1 mL of the sample solution at 37 °C for 10 min. The absorbance was then read with a UV-Vis spectrophotometer at a wavelength of 593 nm, which corresponds to the maximum absorbance peak of the Fe^2+-TPTZ complex. Trolox® was used as a standard, and ferulic acid was used as positive control, and the results are expressed as µmol TE/g.

A further experiment has as its system primary human monocytes. Description: Lipid mediator (LM) formation in primary human monocytes. To be noted: diclofenac 1 µM; A23187 2.5 µM, 30 min. The format is cell-based. From the text:
Monocytes and polymorphonuclear leukocytes (PMNL) were freshly isolated from human blood. Human blood and leukocyte concentrates were provided by the Institute for Transfusion Medicine of the University Hospital Jena (Thuringia, Germany). The protocols for experiments with human blood and blood cells were approved by the ethical commission of the Friedrich Schiller University of Jena. Following blood density centrifugation and separation of cell populations, peripheral blood mononuclear cells (PBMC) were left to adhere for 1 h to cell culture flasks (monocyte-enriched PBMC). Non-adherent cells were washed off from the adherent monocytes, before pre-incubating monocytes (5 × 10^6 cells/mL) with the test compounds for 10 min at 37 °C. LM formation was elicited with A23187 (2.5 µM) and CaCl2 (1 mM) over 30 min. The reaction was stopped with 1 mL of ice-cold methanol containing 10 µL of deuterium-labelled internal LM standards (200 nM d8-5S-HETE, d4-LTB4, d5-LXA4, d5-RvD2, d4-PGE2 and 10 µM d8-AA). LMs were extracted using Sep-Pak C18 35 cc Vac Cartridges (Waters, Milford, MA, USA) and analysed by UPLC-MS/MS as described by Pein et al..
The ability to modulate LM formation was screened in primary human monocytes expressing the enzymes required for PGE2, LTB4, and 12-HETE production (Figure 2A). Cells were pre-treated with the test compounds BZTst1–6 (10 µM) or the reference COX inhibitor diclofenac (1 µM) for 10 min prior to stimulation with the calcium ionophore A23187 (2.5 µM) for 30 min.

Each structure is given as a SMILES string.

We go through 3 molecules from PMC11504387, “Synthesis and Biological Activity Assessment of 2-Styrylbenzothiazoles as Potential Multifunctional Therapeutic Agents” (Antioxidants, 2024).

A word on the IC50: it is the concentration at which inhibition is half-maximal. Higher therefore signals lower potency.

For the molecule `N.N.[Cl][Pt][Cl]` [Cisplatin, reference compound], the IC50 with skin HaCat keratinocytes was 2000 ± 400 nM. Consider `COc1cc(/C=C/C(=O)O)ccc1O` [Ferulic Acid, reference compound], for which the ORAC in “ORAC assay” is 15,906.40 ± 14.20 µmolTE/g. Further, the “DPPH IC50 (sample concentration able to scavenge 50% of the DPPH radical)” value in experiment [1] is reported as “(9.90 ± 0.70) µg/mL”. In experiment [2], the FRAP was 6872.60 ± 10.70 µmolTE/g.

For `O=C(O)Cc1ccccc1Nc1c(Cl)cccc1Cl` [diclofenac, reference compound], the PGE2 formation result with primary human monocytes is recorded as “significantly downregulated”.
